According to patent US20080194883A1, “Menthol-Containing Solids Composition” (SYMRISE GMBH & CO. KG, priority 2005, published 2008):

Columns and labels:
[1] = after 24 hours; cited from earlier work
[2] = Solution test: time taken for complete dissolving in ethanol/water; type: physicochemical; conditions: 5 g in 95 g ethanol/water (equal weight contents), 20° C., stirred, optical determination
Procedure: The various rates of solution of a solids composition according to the invention according to Example 1a above and forms of I-menthol which are not according to the invention were compared.
For this, in each case 5 g I-menthol or 5 g of the I-menthol-containing solids composition according to the invention according to Example 1a were added to 95 g of a mixture, temperature-controlled at a constant 20° C., of equal weight contents of ethanol and water and the time taken for complete dissolving (optical determination) of the menthol and of the menthol-containing solids composition was determined.
The particular solution test was carried out in a glass beaker having a diameter of 5 cm and a filling height of 7 cm. The contents of the glass beaker were in each case stirred with a 4 cm long magnetic stirring fish at a magnetic stirrer speed of 4 revolutions per second during the solution test. The temperature was monitored with a Pt-100 thermometer, which was immersed 5 cm deep into the liquid, was placed at a distance of 1 cm from the glass beaker wall and simultaneously served as a baffle.
The size of the crystals here corresponded to the typical (commercially available) crystal geometry of natural I-menthol.

[3] = Storage test for caking or formation of lumps (optical and mechanical flowability check); type: physicochemical; conditions: storage times of more than three months
Procedure: In this context, a solid menthol component consisting of bodies in the form of crystals or pressed pieces was employed. The menthol-containing solids composition according to the invention which was investigated remained convenient and reliable to handle and pourable, flowable and meterable over the entire observation period.
This menthol-containing solids composition was packed in a plastic bag in a cube-shaped box and stored at 20° C. (bulk height: 50 cm). Every 14 days, the composition according to the invention was investigated optically and mechanically for its flowability.
I-Menthol (25 kg) in the form of freshly prepared needle-shaped crystals (for the particle distribution, see Example 1) was initially introduced into a mixer and mixed briefly and intensively with various amounts of magnesium oxide (calculated average particle size: 12.8 nm, specific BET surface area: 130 m^2/g, compare Example 1a). The content of magnesium oxide (solid anticaking agent) in the total solids mixture was 0.5 wt. %, 1 wt. %, 2 wt. % or 4 wt. %. The original menthol crystals were comminuted by the mixing operation (compare Example 1a). The menthol-containing solids compositions having various contents of magnesium oxide were each packed in a plastic bag in a cube-shaped box and stored at 20° C. (bulk height: 50 cm). […]

CC(C)[C@@H]1CC[C@@H](C)C[C@H]1O [flaked I-menthol, I-menthol]
adhesion and formation of lumps on storage [1]: adhesion and formation of lumps

CC(C)[C@@H]1CC[C@@H](C)C[C@H]1O [Crystals of natural menthol, I-menthol]
Time taken for complete dissolving [2]: 255 s

CC(C)[C@@H]1CC[C@@H](C)C[C@H]1O [Menthol crystals from Example 1, I-menthol]
Time taken for complete dissolving [2]: 170 s

CC1CCC(C(C)C)C(O)C1 (stereo not drawn) [Menthol]
Time taken for complete dissolving [2]: 504 s | formation of lumps and caking on storage [3]: gradually form lumps and cake

CC(C)[C@@H]1CC[C@@H](C)C[C@H]1O [Menthol crystals in lump form, obtained by storage of the me] [I-menthol]
Time taken for complete dissolving [2]: 280 s
